Experimental data: article PMC8786932, “Bicyclic azetidines target acute and chronic stages of Toxoplasma gondii by inhibiting parasite phenylalanyl t-RNA synthetase” (Nature Communications, 2022)
Where “and” joins values, the source holds several entries; their conditions need not be identical. Equal entries are not always repeated. Where two headings read alike, the source gives them in different places.

How the values were obtained:
[1] = test system: ex vivo T. gondii ME49-FLuc bradyzoites from tissue cysts of chronically infected mice; test: Ex vivo bradyzoite treatment assay (plaque assay); type: cell-based, Toxoplasma gondii; conditions: for growth of ex vivo bradyzoites at EC50: constant treatment, vs DMSO
Method: The brains from CBA/J mice chronically infected with the ME49-FLuc strain were harvested, homogenized, and tissue cysts isolated on Percoll gradients, as described previously[9],[27]. Following isolation, purified tissue cysts were treated with acid-pepsin solution ([…] sodium chloride (NaCl), 60 mM hydrochloric acid (HCl) and freshly made pepsin (0.1 mg/mL in 1xPBS) for 10 min at 37 °C. Following acid-pepsin treatment and addition of neutralization buffer (94 mM sodium carbonate (Na2CO3), liberated bradyzoites were equally distributed into 6-well plates with 5 mL culture media containing compounds or vehicle control (0.1–0.2% DMSO final concentration). Plates were incubated undisturbed for 12–14 days followed by fixation in 100% ethanol (ETOH) for 5 min at RT, rinsing with tap water, staining in 0.1% crystal violet solution for 10 min at RT, rinsing in water and air drying. Plaques were quantified on a Zeiss AxioObserver microscope equipped with a ×2.5 objective (Department of Molecular Microbiology Imaging Facility at the Washington University School of Medicine).

[2] = test system: in vitro induced T. gondii ME49-FLuc bradyzoite cysts; test: In vitro bradyzoite growth assay, cyst size (3 d induction + 2 d treatment); type: cell-based, Toxoplasma gondii; conditions: for Cyst size (individual cysts): area within cyst wall, measured in microns; for effect on cyst size: at the EC90 or 3xEC90, 2 days after 3 days induction
Method: To monitor the effects of compounds on early bradyzoite differentiation, ME49-Fluc tachyzoites were inoculated onto HFF monolayers grown on coverslips in 24-well plates and allowed infect during a 2 h incubation in 3% DMEM (DMEM containing glutamine (10 mM), gentamycin (10 μg/mL,) and 3% FBS) at 37°C, 5% CO2. The medium was replaced with RPMI 1640 pH 8.2 and cells were cultured in ambient CO2 at 37°C for 3 days to induce bradyzoites. […] Samples were fixed and stained using biotinylated Dolichos biflorus lectin (DBL) (Vector Laboratories (#B-1035-5) […]) followed by Alexa Fluor 488 streptavidin (Thermo Fischer (#S11223) 1:1,000 dilution) and mouse mAb 8.25.8 anti-BAG1 (from Dr. Louis Wiess) (1:1,100)[56] followed by goat anti-mouse IgG conjugated to Alexa Fluor 568 (Thermo Fischer (#A-1104) 1:1,000). Samples were analyzed using a Zeiss AxioObserver Z1 equipped with Colibri LED illumination using a 40x EC Plan-Neofluar objective (N.A. 1.3) and images were captured using an ORCA-ER digital camera operated using ZEN v3.3 (Carl Zeiss). Cyst size was determined by measuring the area defined by the perimeter of the cyst wall as measured in microns.

[3] = test system: blood-stage P. falciparum; conditions: Fig 2A Tg_Pf_Cp EC50s; previously reported values, reference not visible in the shown part; cited from earlier work
[4] = in vitro; type: cell-based; conditions: human, Caco-2; for EC50: nuclei count, 44 h, top 20 μM; for selectivity ratio: EC50 host cell/EC50 T. gondii, read-out: Caco-2 fold selectivity
Method: (§1) For the toxicity screen, compounds were tested in 96-well plates using all the wells as no edge affect was observed. Compounds were diluted to 40 μM (2x concentration in 10% DMEM, 0.4% DMSO) before step-wise, 3-fold dilution in 10% DMEM to create 10-dose series (20 μM to 0.001 μM). Host cells were plated in black, μ-Clear 96-well plates (Greiner Bio-One). We compared several lineages including HepG2 (human hepatocellular carcinoma (ATCC-HB-8065)), THP-1 (human monocytic tumor line), SH-SY5Y (human neuroblastoma (ATCC CRL-2266)), A549 (human lung carcinoma (ATCC CRM-CCL-185)) and Caco-2 (human intestinal adenocarcinoma (ATCC HTB-37)) and HFF (primary human foreskin fibroblast) obtained from the laboratory of John Boothroyd at Stanford University. Cells were maintained in culture media according to the formulations recommended by ATCC. Cells were plated at a density (ranging from of 5 × 10^3 to 2 × 10^4 cells/well (100 μL vol)) resulting in sub-confluent monolayers to allow expansion during the 2 day growth assay. THP-1 cells were treated with 10 ng/ml phorbol 12-myristate 13-acetate (PMA) for 24 h to differentiate into macrophages before compound addition. For all other cells, compounds were added at 6 h post seeding to host cells containing plates (200 μL final volume, 0.2% DMSO) and incubated in culture medium at 37 °C supplemented with 5% CO2. At 44 h post compound addition (50 h total growth time), culture media was aspirated and replaced with Live Imaging solution (ThermoFisher) supplemented with 10 μg/mL Hoeschst 33342 (Sigma) for 20 min at 37 °C. […] Alternatively, plates fixed with 4% formaldehyde for 10 min and stained with 10 μg/mL Hoeschst 33342 (Sigma) for 20 min and imaged using a Cytation 3 multi-mode imager (DAPI, 10x objective, 4 images/well) and nuclei quantified using the Gen5 imager software (v3.08). Assays were repeated with two technical replicates within each of two independent biological replicates.
(§2) All statistical analyses were conducted using Prism 9 (GraphPad Software, Inc.). Dose–response inhibition curves for parasite and host cell toxicity screens (EC50 values) were generated using (Log(inhibitor) vs. normalized response—Variable slope) function. […] For multiple comparisons, two-way ANOVA analysis function using either Sidák’s multiple comparisons test or Dunnett’s multiple comparisons test was applied as indicated.

[5] = in vitro; type: cell-based, human; conditions: human, top 20 μM
Method: as §1, §2

[6] = test system: THP-1 (human monocytic tumor line); test: in vitro; type: cell-based; conditions: EC50 host cell/EC50 T. gondii
Method: as §1, §2

[7] = test system: SH-SY5Y (human neuroblastoma); test: in vitro; type: cell-based; conditions: EC50 host cell/EC50 T. gondii
Method: as §1, §2

[8] = Constant treatment, Fig 5H top 4, replicates
[9] = Washout, Fig 5H top 4, replicates
[10] = PMA differentiated, read-out: THP-1 EC50
[11] = nuclei count, 44 h, read-out: A549 EC50
[12] = nuclei count, 44 h, read-out: HFF EC50
[13] = nuclei count, 44 h, read-out: SH-SY5Y EC50
[14] = nuclei count, 44 h after compound addition, read-out: HEPG2 EC50

SMILES	Ex vivo bradyzoite plaques, normalised to DMSO = 100 [1, 8]	growth of ex vivo bradyzoites at EC50 ([1]; EC50 concentration)	Ex vivo bradyzoite plaques, normalised to DMSO = 100 [1, 9]	Cyst size (individual cysts) ([2]; 3XEC90, 2 days)	Cyst size (individual cysts) ([2]; EC90, 2 days)	effect on cyst size [2]	EC50 [3]	EC50 [4]	EC50 [5, 10]	EC50 [5, 11]	EC50 [5, 12]	EC50 [5, 13]	EC50 [5, 14]	THP-1 fold selectivity [6]	SH-SY5Y fold selectivity [7]	selectivity ratio [4]	also measured
COc1ccc(NC(=O)N2CCCCN3[C@H](CN(C)C)[C@H](c4ccc(C#Cc5ccccc5)cc4)[C@@H]3C2)cc1 [BRD7929]	1.0 and 0.2 and 1.9	only partially reduced growth	2.174 and 0.37 and 0.00000000	70.79 and 76.24 and 90.26 and 38.16 and 85.34 and 130.5 and 42.83 and 30.86 and 19.37 and 49.32 and 117.9 and 50.48 and 21.2 and 120.5 and 75.85 and 64.97 and 70.16 and 108.7 and 69.23 and 113	112.8 and 142 and 65 and 40.33 and 94.48 and 106.3 and 167.8 and 104.7 and 129.7 and 105.6 and 65.07 and 56.59 and 80.88 and 43.39 and 143.9 and 81.69 and 71.88 and 171.2 and 68.84 and 66.51	significantly diminished cyst size	13 nM	7000 nM	672 nM	5370 nM	7870 nM	731 nM	3060 nM				growth inhibition of ex vivo bradyzoites ([1]; 3×EC90, constant treatment): 99%; effect after washout ([1]; 3×EC90, short-term (4 h) treatment then washout): sustained following washout; growth inhibition of ex vivo bradyzoites ([1]; EC90, constant treatment): 93%; Ex vivo bradyzoite plaques, normalised to DMSO = 100 ([1]; Washout, EC50 concentration, Fig 5I): 66.67 and 75.15 and 100; Ex vivo bradyzoite plaques, normalised to DMSO = 100 ([1]; Washout, EC90 concentration, Fig 5I): 83.91
CN(C[C@@H]1[C@H](c2ccc(C#Cc3ccccc3)cc2)[C@@H]2CN(C(=O)Nc3ccc(OC4CC4)cc3)CCCCN12)S(C)(=O)=O [BRD2987]	0.5 and 0.7 and 3.9		6.522 and 15.2 and 18.2	210 and 276.2 and 29.32 and 152.5 and 78.3 and 34.32 and 25.15 and 91.33 and 112.7 and 36.9 and 64.42 and 29.43 and 70.1 and 40.53 and 119.9 and 26.89 and 53.28 and 150.6 and 151.3 and 93.74	236.6 and 67.46 and 53.54 and 238 and 123.3 and 64.95 and 39.29 and 138.8 and 102.4 and 187.5 and 285.6 and 103.1 and 283.5 and 243.7 and 89.72 and 170.5 and 68.94 and 144.9 and 116.2 and 59.27	significantly diminished cyst size	2 nM	> 20000 nM	255 nM	2170 nM	> 20000 nM	2360 nM	> 20000 nM	13.4 fold	123.9 fold		
COc1ccc(NC(=O)N2CCCCN3[C@H](CO)[C@H](c4ccc(C#Cc5ccccc5)cc4)[C@@H]3C2)cc1 [BRD3444]	0.5 and 0.2 and 1.9		1.087 and 0.00000000 and 9.1	55.84 and 108.4 and 18.78 and 55.57 and 227.1 and 49.46 and 37.83 and 273.6 and 101.6 and 179.3 and 249.8 and 34.55 and 88.71 and 51.38 and 34.99 and 140.8 and 42.55 and 30.36 and 52.48 and 90.45	20.97 and 95.37 and 274.5 and 251.3 and 190.7 and 326.2 and 209.9 and 125.4 and 65.68 and 59.54 and 81.3 and 20.04 and 43.73 and 427 and 253.3 and 87.22 and 217.7 and 114.5 and 214.1 and 137.7	significantly diminished cyst size	12 nM	7820 nM	2580 nM	> 20000 nM	> 20000 nM	2660 nM	11300 nM	88.9 fold	91.9 fold	270	
COc1ccc(NC(=O)N2CCCCN3[C@H](CN(C)S(C)(=O)=O)[C@H](c4ccc(C#Cc5ccccc5)cc4)[C@@H]3C2)cc1 [BRD8494]	0.5 and 0.2 and 1.9	did not inhibit the growth	1.087 and 0.74 and 4.5	46.64 and 167.1 and 52.11 and 128.7 and 180.9 and 64.9 and 103 and 36.82 and 65.28 and 41.9 and 105.7 and 87.22 and 144.1 and 114.5 and 214.1 and 103.8 and 343.4 and 159.3 and 37.35 and 133.8	112 and 360 and 182.2 and 110.4 and 32.16 and 37.14 and 75.73 and 23.46 and 145.9 and 108.1 and 145.1 and 279 and 170.3 and 246.7 and 83.16 and 29.6 and 216.4 and 92.48 and 64.36 and 16.16	significantly diminished cyst size	26 nM	> 20000 nM	461 nM	> 20000 nM	> 20000 nM	1780 nM	> 20000 nM	13.2 fold	51.0 fold	571	Ex vivo bradyzoite plaques, normalised to DMSO = 100 ([1]; Constant, EC50 concentration, Fig 5J): 100 and 95.62 and 97.45; growth of ex vivo bradyzoites at higher concentrations ([1]; EC90 and 3×EC90, constant treatment): nearly eliminated growth; Ex vivo bradyzoite plaques, normalised to DMSO = 100 ([1]; Washout, 3xEC90 concentration, Fig 5J): 97.62 and 100; Ex vivo bradyzoite plaques, normalised to DMSO = 100 ([1]; Washout, EC50 concentration, Fig 5J): 100 and 96.6 and 91.18; Ex vivo bradyzoite plaques, normalised to DMSO = 100 ([1]; Washout, EC90 concentration, Fig 5J): 100
